Laboratory results reported in paper PMC4642645, “Oxacillin sensitization of methicillin-resistant Staphylococcus aureus and methicillin-resistant Staphylococcus pseudintermedius by antisense peptide nucleic acids in vitro” (BMC Microbiology, 2015).

Key:
[1] = test system: NCTC 13142; experiment: Growth inhibition assay (OD550 growth curves); type: cell-based, Staphylococcus aureus (MRSA); details: NCTC 13142, MHB with 6 μg/ml oxacillin, PNA 0–7.5 μM, 35 °C, 6 h, OD550, n = 3
Experimental: (§1) Anti-ftsZ PNAs were tested for effects on growth. Overnight MHB cultures were adjusted to 5 × 10^5 CFU/ml per well of a 96 well plate in MHB supplemented with 6 μg/ml oxacillin as described above. Anti-ftsZ PNA was added to final concentrations of 0, 1, 2.5, 5, 7.5 μM and incubated in a microplate reader (Spectramax 340PC, Molecular Devices) at 35 °C for 6 h. The optical density of the cultures was monitored at 550 nm with readings every 5 min after shaking for 5 s.

[2] = test system: HH-1; experiment: Growth inhibition assay (OD550 growth curves); type: cell-based, Staphylococcus pseudintermedius (MRSP); details: HH-1, MHB with 6 μg/ml oxacillin, PNA 0–7.5 μM, 35 °C, 6 h, OD550, n = 3
Experimental: as §1

[3] = test system: NCTC 13142; experiment: Light microscopy of Gram stained cells (cell morphology); type: cell-based, Staphylococcus aureus (MRSA); details: NCTC 13142, 7.5 μM PNA, 6 h at 35 °C, 1000 × magnification
Experimental: (§2) Bacterial cultures were treated with anti-ftsZ PNA Z46 in broth as described in the viable count assay. After 6 h at 35 °C, cultures were pelleted, washed once in PBS, and re-suspended in 1/10 of original volume of the culture in PBS. Ten microliter aliquots were heat-fixed, Gram stained, and viewed under a light microscope (Olympus BX60) at 1000 × magnification. Images were captured using the Image-Pro Plus 5.0 (MediaCybernetics), and counting of purple and pink cells were carried out using ImageJ 1.44o (National Institute of Health, USA).

[4] = test system: HH-1; experiment: as above; type: cell-based, Staphylococcus pseudintermedius (MRSP); details: HH-1, 2.5 μM PNA, 6 h at 35 °C, 1000 × magnification
Experimental: as §2

[5] = test system: NCTC 13142; experiment: Oxacillin sensitization viable count assay (CFU on oxacillin plates); type: cell-based, Staphylococcus aureus (MRSA); details: 6 h, plated on 16 μg/ml oxacillin, n = 3; for CFU reduction of NCTC 13142: 7.5 μM PNA, ratio to untreated control, mean
Experimental: (§3) The viable count assay is more sensitive than the broth assay and was used to assess the effects of PNAs that performed well in the initial screen described above. In the viable count assay, 5 × 10^5 CFU/ml per well of culture was treated either with 2.5, 5 and 7.5 μM of PNA for NCTC 13142, or 1, 2.5 and 5 μM of PNA for HH-1 in MHB at 35 °C for 6 h. […] Agar plates were incubated at 35 °C for 24 h, and dilutions resulting in 30–300 colonies per plate were used to determine the viable count. Experimental repeats were carried out on separate days, and reductions in CFU of treated cultures were normalized to CFU of the untreated control culture on the day. Statistical analysis of CFU reductions was carried out with the paired Student’s t-Test in Microsoft Excel.

[6] = test system: MRSP isolates; details: cited from earlier work
Description: In the MRSP strain HH-1, PNAs were effective at much lower concentrations compared to NCTC 13142. This is presumably due to differences in cell wall structures, as passage across the cell wall is considered to be the main limiting factor for PNA efficacy. Another indication of cell wall differences is that scrambled PNAs affected cell viability of HH-1 without affecting transcript levels of mecA or ftsZ (i.e. non-specific toxic effect).

[7] = test system: ftsZ mRNA; experiment: ftsZ mRNA level by RT-qPCR; type: cell-based, Staphylococcus aureus (MRSA) NCTC 13142; details: NCTC 13142, 7.5 μM PNA, no oxacillin, compared to untreated or scrZ-treated cells, n = 3
Experimental: (§4) Growth of cultures in a 96 well plate was monitored by reading the optical density at 550 nm every 5 min, after shaking for 5 s in a microplate reader (Spectramax 340PC, […]). Cultures were harvested when the untreated control culture increased in OD550 ≈ 0.1. Cultures with the same PNA treatment but in different wells across the 96 well plate were pooled for total RNA extraction and DNase I treatment (Ribopure™ Bacteria kit, Life Technologies). RNA was checked for gDNA contamination by qPCR using gyrA primers (Additional file 1: Table S1) and SsoFast™ EvaGreen® Supermix (Bio-Rad) before cDNA synthesis using 50 ng RNA and iScript™ Reverse Transcription Supermix (Bio-Rad). Samples of cDNA were diluted 10-fold and 4 μl used in each qPCR reaction. […]
(§5) Primer pairs for qPCR were designed by Primer3 with a Tm of 60 °C and product sizes of 100–200 bp (Additional file 1: Table S1). […] Primer efficiencies were determined using 10-fold serial dilutions of cDNA (10 pg-1 μg). […]
(§6) Total RNA and cDNA were prepared as described above. Raw Cq values were analysed in qbase + (Biogazelle, Belgium) with user-defined primer efficiencies (Additional file 1: Table S1) and expression stabilities (M value) of each candidate reference gene fabD, gyrA, proC, pta, pyk, rho, sodA, and tpiA were calculated as the average pairwise variation for each gene with all other tested genes. […]

[8] = test system: ftsZ mRNA; experiment: ftsZ mRNA level by RT-qPCR; type: cell-based, Staphylococcus pseudintermedius (MRSP) HH-1; details: HH-1, 2.5 μM PNA, no oxacillin, compared to untreated or scrZ-treated cells, n = 3
Experimental: as §4, §5, §6

[9] = test system: HH-1; experiment: Oxacillin sensitization viable count assay (CFU on oxacillin plates); type: cell-based, Staphylococcus pseudintermedius (MRSP)
Experimental: as §3

Substance | Concentration that inhibited growth [1] | Concentration that inhibited growth [2] | Cell morphology after Gram stain [3] | Cell morphology after Gram stain [4] | CFU reduction of NCTC 13142 [5] | MIC against MRSP isolates [6] | ftsZ mRNA levels, result in words [7] | ftsZ mRNA levels, result in words [8] | Sensitization to oxacillin (CFU reduction), result in words ([5]; NCTC 13142, PNA 2.5, 5, 7.5 μM (Z46: 7.5 μM)) | MRSP cells killed by oxacillin ([9]; 2.5 μM PNA, 6 h at 35 °C, plated on MH agar with 16 μg/ml oxacillin, relative to untreated control) | Sensitization to oxacillin (CFU reduction), result in words ([9]; HH-1, A73 and scrA 1, 2.5, 5 μM, Z46 0.5, 1, 2.5 μM, 6 h, plated on 16 μg/ml oxacillin, n = 3)
KFFKFFKFFK-eg1-AATTACTATA-NH2 [scrZ, scrambled control PNA for anti-ftsZ PNAs conjugated to the (KFF)3K peptide] | not growth inhibitory | 2.5 µM | appeared normal | appeared normal | 44% |  |  |  |  |  | 
KFFKFFKFFK [(KFF)3K peptide, cell-penetrating peptide (CPP) used as PNA carrier] |  |  |  |  |  | 2 to 8 µM |  |  |  |  | 
KFFKFFKFFK-eg1-TAACATTTAA-NH2 [Z46, anti-ftsZ PNA (−4 to +6) conjugated to the (KFF)3K peptide] | 7.5 µM | 2.5 µM | swollen | swollen | 87% |  | reduced | reduced | significantly sensitized | 95% | significantly sensitized
